Experimental data as given in ChEMBL document CHEMBL5696441 (Nat Chem Biol, 2011).

Legend:
[1] = molecular target: Mitogen-activated protein kinase kinase kinase 6 (Homo sapiens) (UniProt O95382); test: Inhibition of ASK2 (unknown origin) assessed as remaining activity at 1 uM by Kinome scan method relative to control
[2] = molecular target: Calcium/calmodulin-dependent protein kinase type II subunit beta (Homo sapiens) (UniProt Q13554); test: Inhibition of CAMK2B (unknown origin) assessed as remaining activity at 1 uM by Kinome scan method relative to control
[3] = molecular target: Cyclin-dependent kinase 7 (Homo sapiens) (UniProt P50613); test: Inhibition of CDK7 (unknown origin) assessed as remaining activity at 1 uM by Kinome scan method relative to control
[4] = molecular target: Ephrin type-B receptor 1 (Homo sapiens) (UniProt P54762); test: Inhibition of EPHB1 (unknown origin) assessed as remaining activity at 1 uM by Kinome scan method relative to control
[5] = tested on: eIF-2-alpha kinase GCN2 (Homo sapiens), Q9P2K8 [S808G]; test: Inhibition of GCN2 S808G mutant kinase domain 2 (unknown origin) assessed as remaining activity at 1 uM by Kinome scan method relative to control
[6] = molecular target: Homeodomain-interacting protein kinase 2 (Homo sapiens) (UniProt Q9H2X6); test: Inhibition of HIPK2 (unknown origin) assessed as remaining activity at 1 uM by Kinome scan method relative to control
[7] = molecular target: MAP kinase-activated protein kinase 5 (Homo sapiens) (UniProt Q8IW41); test: Inhibition of MAPKAPK5 (unknown origin) assessed as remaining activity at 1 uM by Kinome scan method relative to control
[8] = molecular target: Serine/threonine-protein kinase PAK 1 (Homo sapiens) (UniProt Q13153); test: Inhibition of PAK1 (unknown origin) assessed as remaining activity at 1 uM by Kinome scan method relative to control
[9] = tested on: Phosphatidylinositol 4,5-bisphosphate 3-kinase catalytic subunit alpha isoform (Homo sapiens), P42336 [H1047Y]; test: Inhibition of PIK3CA H1047Y mutant (unknown origin) assessed as remaining activity at 1 uM by Kinome scan method relative to control
[10] = molecular target: Protein kinase C epsilon type (Homo sapiens) (UniProt Q02156); test: Inhibition of PRKCE (unknown origin) assessed as remaining activity at 1 uM by Kinome scan method relative to control
[11] = molecular target: Serine/threonine-protein kinase ULK1 (Homo sapiens) (UniProt O75385); test: Inhibition of ULK1 (unknown origin) assessed as remaining activity at 1 uM by Kinome scan method relative to control
[12] = molecular target: Vascular endothelial growth factor receptor 2 (Homo sapiens) (UniProt P35968); test: Inhibition of VEGFR2 (unknown origin) assessed as remaining activity at 1 uM by Kinome scan method relative to control
[13] = molecular target: Serine/threonine-protein kinase B-raf (Homo sapiens) (UniProt P15056); test: Inhibition of human BRAF assessed as residual activity at 1 uM using MEK1-K97M as substrate in presence of 33P-ATP by ProQinase assay relative to control
[14] = molecular target: CDK6/cyclin D1 (Homo sapiens) (UniProt P24385+Q00534); test: Inhibition of human CDK6/CycD1 assessed as residual activity at 1 uM using RBER-CHKtide as substrate in presence of 33P-ATP by ProQinase assay relative to control; type: protein-complex assay
[15] = molecular target: Ephrin type-A receptor 2 (Homo sapiens) (UniProt P29317); test: Inhibition of human EPHA2 assessed as residual activity at 1 uM using polyEy as substrate in presence of 33P-ATP by ProQinase assay relative to control
[16] = molecular target: Ephrin type-B receptor 3 (Homo sapiens) (UniProt P54753); test: Inhibition of human EPHB3 assessed as residual activity at 1 uM using polyEY as substrate in presence of 33P-ATP by ProQinase assay relative to control
[17] = molecular target: Beta-adrenergic receptor kinase 1 (Homo sapiens) (UniProt P25098); test: Inhibition of human GRK2 assessed as residual activity at 1 uM using casein as substrate in presence of 33P-ATP by ProQinase assay relative to control
[18] = molecular target: Maternal embryonic leucine zipper kinase (Homo sapiens) (UniProt Q14680); test: Inhibition of human MELK assessed as residual activity at 1 uM using RBER-CHKtide as substrate in presence of 33P-ATP by ProQinase assay relative to control
[19] = tested on: Hepatocyte growth factor receptor (Homo sapiens), P08581 [Y1230A]; test: Inhibition of human MET Y1230A mutant assessed as residual activity at 1 uM using poly(Ala,Glu,Lys,Tyr)6:2:5:1 as substrate in presence of 33P-ATP by ProQinase assay relative to control
[20] = molecular target: Serine/threonine-protein kinase 3 (Homo sapiens) (UniProt Q13188); test: Inhibition of human MST2 assessed as residual activity at 1 uM using RB-CTF as substrate in presence of 33P-ATP by ProQinase assay relative to control
[21] = molecular target: Myosin light chain kinase 2, skeletal/cardiac muscle (Homo sapiens) (UniProt Q9H1R3); test: Inhibition of human MYLK2 assessed as residual activity at 1 uM using RB-S6P as substrate in presence of 33P-ATP by ProQinase assay relative to control
[22] = tested on: Proto-oncogene tyrosine-protein kinase receptor Ret (Homo sapiens), P07949 [V804L]; test: Inhibition of human RET V804L mutant assessed as residual activity at 1 uM using polyEY as substrate in presence of 33P-ATP by ProQinase assay relative to control
[23] = molecular target: Serine/threonine-protein kinase TAO2 (Homo sapiens) (UniProt Q9UL54); test: Inhibition of human TAOK2 assessed as residual activity at 1 uM using casein as substrate in presence of 33P-ATP by ProQinase assay relative to control
[24] = Anti-inflammatory activity against human derived medium respond PBMC cells assessed as inhibition in stimulated IL-1ra cytokine release incubated for 2 hrs in the presence of LPS/SEB/aCD28 by Luminex based sandwich immunoassay; type: functional, cell-based
[25] = Plasma concentration in Gal/LPS induced mouse at 3 mg/kg, po for 1 hrs; type: ADME, organism-based

Chain of Serine/threonine-protein kinase 3 (Homo sapiens) (Q13188 whole entry): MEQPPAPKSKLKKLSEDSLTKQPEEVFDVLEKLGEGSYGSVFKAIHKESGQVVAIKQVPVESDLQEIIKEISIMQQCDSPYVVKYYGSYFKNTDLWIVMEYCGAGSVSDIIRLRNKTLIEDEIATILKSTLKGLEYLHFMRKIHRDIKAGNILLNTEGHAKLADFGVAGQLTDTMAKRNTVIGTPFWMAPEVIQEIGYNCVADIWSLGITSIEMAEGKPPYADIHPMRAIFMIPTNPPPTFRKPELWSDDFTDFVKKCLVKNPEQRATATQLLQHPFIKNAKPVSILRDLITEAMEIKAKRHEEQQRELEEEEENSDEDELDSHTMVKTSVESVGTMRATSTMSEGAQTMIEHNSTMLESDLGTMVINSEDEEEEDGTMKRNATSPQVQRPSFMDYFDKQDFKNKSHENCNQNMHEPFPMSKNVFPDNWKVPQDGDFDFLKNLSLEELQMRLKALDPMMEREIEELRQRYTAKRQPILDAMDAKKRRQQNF
Chain of Homeodomain-interacting protein kinase 2 (Homo sapiens) (Q9H2X6 whole entry, looked up): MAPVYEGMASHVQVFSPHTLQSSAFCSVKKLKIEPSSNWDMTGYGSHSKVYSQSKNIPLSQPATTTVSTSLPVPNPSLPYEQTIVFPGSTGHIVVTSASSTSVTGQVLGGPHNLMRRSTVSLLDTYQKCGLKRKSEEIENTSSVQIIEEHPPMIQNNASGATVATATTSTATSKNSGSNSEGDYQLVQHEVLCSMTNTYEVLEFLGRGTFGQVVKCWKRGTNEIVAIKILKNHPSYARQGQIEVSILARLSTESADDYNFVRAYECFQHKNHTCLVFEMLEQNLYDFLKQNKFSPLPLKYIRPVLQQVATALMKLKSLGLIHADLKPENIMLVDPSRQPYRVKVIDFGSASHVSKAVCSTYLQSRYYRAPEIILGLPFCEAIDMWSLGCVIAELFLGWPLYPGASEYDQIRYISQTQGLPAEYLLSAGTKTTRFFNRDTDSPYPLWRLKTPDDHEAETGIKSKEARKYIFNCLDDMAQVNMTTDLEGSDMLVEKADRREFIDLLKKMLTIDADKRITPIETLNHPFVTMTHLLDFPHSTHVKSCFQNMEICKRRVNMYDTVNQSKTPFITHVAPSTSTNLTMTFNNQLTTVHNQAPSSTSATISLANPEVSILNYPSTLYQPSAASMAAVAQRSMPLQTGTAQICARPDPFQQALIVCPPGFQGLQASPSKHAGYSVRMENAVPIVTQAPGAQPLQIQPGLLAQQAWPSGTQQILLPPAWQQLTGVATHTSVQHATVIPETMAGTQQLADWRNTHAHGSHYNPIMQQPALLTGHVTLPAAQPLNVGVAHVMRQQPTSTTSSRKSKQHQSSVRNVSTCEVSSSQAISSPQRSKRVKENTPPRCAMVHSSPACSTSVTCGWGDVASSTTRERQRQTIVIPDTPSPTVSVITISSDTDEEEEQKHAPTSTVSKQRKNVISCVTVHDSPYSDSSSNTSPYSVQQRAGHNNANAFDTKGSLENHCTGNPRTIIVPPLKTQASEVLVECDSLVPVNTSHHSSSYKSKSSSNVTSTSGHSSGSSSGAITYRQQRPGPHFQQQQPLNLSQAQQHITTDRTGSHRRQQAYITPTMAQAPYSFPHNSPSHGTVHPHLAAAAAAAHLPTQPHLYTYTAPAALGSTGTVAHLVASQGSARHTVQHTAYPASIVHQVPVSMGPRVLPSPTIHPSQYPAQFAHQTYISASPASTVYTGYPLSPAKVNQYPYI
Chain of Protein kinase C epsilon type (Homo sapiens) (Q02156 whole entry): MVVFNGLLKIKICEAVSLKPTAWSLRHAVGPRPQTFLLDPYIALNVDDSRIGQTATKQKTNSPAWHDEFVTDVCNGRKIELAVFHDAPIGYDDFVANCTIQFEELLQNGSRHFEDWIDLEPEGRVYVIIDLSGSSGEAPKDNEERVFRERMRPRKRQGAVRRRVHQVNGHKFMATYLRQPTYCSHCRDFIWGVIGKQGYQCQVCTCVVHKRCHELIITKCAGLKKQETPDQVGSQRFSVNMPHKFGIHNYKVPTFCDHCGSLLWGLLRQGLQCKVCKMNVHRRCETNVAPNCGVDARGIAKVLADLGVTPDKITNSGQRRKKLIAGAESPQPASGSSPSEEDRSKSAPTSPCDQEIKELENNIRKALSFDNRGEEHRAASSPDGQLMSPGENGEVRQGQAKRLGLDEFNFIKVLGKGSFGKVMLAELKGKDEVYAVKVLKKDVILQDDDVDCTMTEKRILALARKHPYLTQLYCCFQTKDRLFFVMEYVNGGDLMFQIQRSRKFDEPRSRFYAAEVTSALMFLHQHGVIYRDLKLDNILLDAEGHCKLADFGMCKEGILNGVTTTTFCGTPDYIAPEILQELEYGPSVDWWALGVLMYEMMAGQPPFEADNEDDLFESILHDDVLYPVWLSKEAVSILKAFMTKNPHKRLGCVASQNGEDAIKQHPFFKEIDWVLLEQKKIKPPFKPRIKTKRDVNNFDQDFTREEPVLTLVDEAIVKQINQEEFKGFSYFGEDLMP
Chain of Myosin light chain kinase 2, skeletal/cardiac muscle (Homo sapiens) (Q9H1R3 whole entry): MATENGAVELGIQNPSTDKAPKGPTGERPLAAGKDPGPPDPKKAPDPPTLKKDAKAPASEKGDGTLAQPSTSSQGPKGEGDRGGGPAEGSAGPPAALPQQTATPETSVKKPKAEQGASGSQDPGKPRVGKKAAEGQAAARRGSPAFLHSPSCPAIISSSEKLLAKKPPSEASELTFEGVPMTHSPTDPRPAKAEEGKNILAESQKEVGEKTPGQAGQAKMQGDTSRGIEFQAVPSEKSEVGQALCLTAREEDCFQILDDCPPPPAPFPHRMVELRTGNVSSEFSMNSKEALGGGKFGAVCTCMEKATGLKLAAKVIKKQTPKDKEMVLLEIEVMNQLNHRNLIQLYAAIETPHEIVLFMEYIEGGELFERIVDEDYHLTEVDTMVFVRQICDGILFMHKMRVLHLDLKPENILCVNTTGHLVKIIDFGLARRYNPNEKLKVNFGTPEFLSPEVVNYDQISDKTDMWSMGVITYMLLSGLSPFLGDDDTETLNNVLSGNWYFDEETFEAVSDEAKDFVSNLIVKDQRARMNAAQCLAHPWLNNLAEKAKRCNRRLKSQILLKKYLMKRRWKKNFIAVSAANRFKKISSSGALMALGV
Chain of Vascular endothelial growth factor receptor 2 (Homo sapiens) (P35968 whole entry): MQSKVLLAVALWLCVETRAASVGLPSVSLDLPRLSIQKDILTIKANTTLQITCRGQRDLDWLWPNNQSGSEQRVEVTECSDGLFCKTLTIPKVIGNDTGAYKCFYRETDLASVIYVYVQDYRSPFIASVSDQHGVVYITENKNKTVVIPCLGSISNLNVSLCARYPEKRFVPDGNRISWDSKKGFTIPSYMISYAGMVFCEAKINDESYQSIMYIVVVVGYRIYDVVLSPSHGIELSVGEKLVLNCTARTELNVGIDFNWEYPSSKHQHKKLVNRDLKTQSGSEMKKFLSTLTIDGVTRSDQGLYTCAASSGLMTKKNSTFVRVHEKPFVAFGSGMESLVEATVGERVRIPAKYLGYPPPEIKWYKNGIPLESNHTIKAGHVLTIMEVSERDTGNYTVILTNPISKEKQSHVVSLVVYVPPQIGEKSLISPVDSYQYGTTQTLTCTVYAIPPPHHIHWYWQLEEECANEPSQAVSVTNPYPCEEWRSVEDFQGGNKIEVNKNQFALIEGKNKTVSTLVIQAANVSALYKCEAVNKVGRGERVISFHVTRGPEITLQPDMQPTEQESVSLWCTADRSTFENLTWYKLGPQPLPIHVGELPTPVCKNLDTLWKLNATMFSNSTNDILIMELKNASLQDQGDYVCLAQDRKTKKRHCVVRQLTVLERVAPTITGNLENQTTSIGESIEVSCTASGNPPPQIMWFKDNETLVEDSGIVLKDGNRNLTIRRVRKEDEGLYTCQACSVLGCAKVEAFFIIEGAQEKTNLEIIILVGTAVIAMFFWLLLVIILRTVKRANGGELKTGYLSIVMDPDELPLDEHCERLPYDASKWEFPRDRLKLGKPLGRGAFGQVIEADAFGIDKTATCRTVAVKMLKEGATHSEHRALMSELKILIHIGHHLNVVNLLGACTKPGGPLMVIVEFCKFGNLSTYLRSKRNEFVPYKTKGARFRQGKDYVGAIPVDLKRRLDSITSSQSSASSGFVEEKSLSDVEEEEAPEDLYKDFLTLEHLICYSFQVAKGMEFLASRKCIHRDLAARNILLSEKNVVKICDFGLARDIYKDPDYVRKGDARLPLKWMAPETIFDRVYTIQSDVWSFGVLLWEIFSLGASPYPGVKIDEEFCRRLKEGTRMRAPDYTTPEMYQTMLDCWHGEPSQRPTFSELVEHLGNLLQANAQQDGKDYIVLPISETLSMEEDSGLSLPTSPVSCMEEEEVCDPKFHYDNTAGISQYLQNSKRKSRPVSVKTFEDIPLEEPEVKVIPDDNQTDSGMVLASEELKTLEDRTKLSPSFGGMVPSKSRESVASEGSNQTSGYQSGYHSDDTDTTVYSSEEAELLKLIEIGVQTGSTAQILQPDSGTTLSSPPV
Chain of Serine/threonine-protein kinase PAK 1 (Homo sapiens) (Q13153 whole entry, canonical isoform): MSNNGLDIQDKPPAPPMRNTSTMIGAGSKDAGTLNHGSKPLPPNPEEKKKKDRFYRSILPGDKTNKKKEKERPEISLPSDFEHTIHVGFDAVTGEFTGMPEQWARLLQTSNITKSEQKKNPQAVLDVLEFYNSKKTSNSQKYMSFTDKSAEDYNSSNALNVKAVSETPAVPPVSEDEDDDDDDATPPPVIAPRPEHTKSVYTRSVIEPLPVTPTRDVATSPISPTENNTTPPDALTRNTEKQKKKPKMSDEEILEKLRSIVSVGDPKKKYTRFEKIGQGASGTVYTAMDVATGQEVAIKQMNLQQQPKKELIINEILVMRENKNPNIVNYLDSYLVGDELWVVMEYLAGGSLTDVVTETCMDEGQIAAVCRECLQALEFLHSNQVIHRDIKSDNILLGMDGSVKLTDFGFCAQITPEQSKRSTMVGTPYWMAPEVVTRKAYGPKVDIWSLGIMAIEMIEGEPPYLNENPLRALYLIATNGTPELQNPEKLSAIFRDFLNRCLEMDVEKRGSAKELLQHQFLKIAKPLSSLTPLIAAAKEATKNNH

Structure (SMILES): O=C1c2ccc(Nc3ccc(F)cc3F)cc2CCc2ccc(OC[C@H](O)CO)cc21 [Skepinone-L]
- Activity [1]: 100%
- Activity [2]: 100%
- Activity [3]: 100%
- Activity [4]: 98%
- Activity [5]: 100%
- Activity [6]: 100%
- Activity [7]: 100%
- Activity [8]: 100%
- Activity [9]: 100%
- Activity [10]: 100%
- Activity [11]: 100%
- Activity [12]: 100%
- Activity [13]: 112%
- Activity [14]: 88%
- Activity [15]: 119%
- Activity [16]: 108%
- Activity [17]: 83%
- Activity [18]: 81%
- Activity [19]: 91%
- Activity [20]: 83%
- Activity [21]: 92%
- Activity [22]: 115%
- Activity [23]: 102%
- IC50 [24]: 870 nM
- concentration at 1 h [25]: 240 nM
